Source: publication PMC7992063 (ACS Omega, 2021)
“Also recorded” adds a separate entry of the source. Like-named read-outs stand apart in the source and are kept apart here.

Key:
[1] = system: SARS-CoV-2 (Strain USA_WA1/2020); experiment: microbe, parasite or virus in culture; format: cell-based
[2] = system: SARS-CoV-2 (Strain USA_WA1/2020); experiment: microbe, parasite or virus in culture; format: cell-based; details: Severe acute respiratory syndrome coronavirus 2, Caco-2, 72 h
[3] = system: SARS-CoV-2 (isolate USA WA1/2020); experiment: microbe, parasite or virus in culture; format: cell-based; details: for IC50: Severe acute respiratory syndrome coronavirus 2, Calu-3, read-out: IC50 (EC50), infection (dsRNA+ cells/total cell number)
SARS-CoV-2-nLuc = experiment: microbe, parasite or virus in culture; format: cell-based; details: Severe acute respiratory syndrome coronavirus 2, A549-ACE2
[4] = system: murine hepatitis virus (MHV); experiment: microbe, parasite or virus in culture; format: cell-based; details: Murine coronavirus
HCoV 229E = format: cell-based, human coronavirus 229E
[5] = target: SARS-CoV-2 spike receptor binding domain (RBD) (Severe acute respiratory syndrome coronavirus 2, UniProt P0DTC2)
SARS-CoV-2 [6] = format: cell-based
Vero 76 cells = details: African green monkey
EBOV glycoprotein = details: cited from earlier work
SARS-CoV-2 [7] = details: cited from earlier work
SARS-CoV-2 pseudovirus = details: mouse, in vivo; cited from earlier work
in vitro [8] = details: African green monkey
in vitro [9] = details: human
spike RBD = details: read-out: affinity for spike RBD; cited from earlier work
SARS-CoV-2 [10] = experiment: microbe, parasite or virus in culture; format: cell-based
SARS-CoV-2 [11] = format: cell-based; details: 10 μM; 24 h
SARS-CoV-2 [12] = format: cell-based; remark: listed apart in the source
rVSV-SARS-CoV-2 S = format: cell-based
lysosomal pH = details: read-out: IC50, lysosomotropic; cited from earlier work
SARS-CoV-2 [13] = details: cited from earlier work; remark: listed apart in the source
Vero cells = details: cited from earlier work
Calu-3 cells = details: cited from earlier work
[14] = Severe acute respiratory syndrome coronavirus 2, Vero 76

Row | Compound | EC50 [1] | activity against SARS-CoV-2 in Vero 76 [1] | EC50 [1, 14] | EC90 [2] | activity against SARS-CoV-2 in Calu-3 [3] | IC50 (SARS-CoV-2-nLuc) | IC50 [4] | decrease of virus titer (HCoV 229E) | activity against SARS-CoV-2 in Vero E6 (SARS-CoV-2 [6]) | CC50 (Vero 76 cells) | Kd (EBOV glycoprotein) | CC50 (in vitro [8]) | CC50 (in vitro [9]) | IC50 [3] | weaker affinity for spike RBD compared to ACE2 [5] | activity in VSV-pseudotype neutralization assay (rVSV-SARS-CoV-2 S) | neutralization (rVSV-SARS-CoV-2 S) | other results
1 | CCN(CC)CCCC(C)Nc1c2ccc(Cl)cc2nc2ccc(OC)cc12 (stereo not shown) [quinacrine] | > 6.87 µM | no in vitro activity | > 7.33 µM | 10.5 µM | no in vitro activity | < 0.2 µM | 2.3 µM | 3.9 logTCID50/mL | no in vitro activity; also recorded: no inhibition | 6.87 µM | 7.55 µM | 7.33 µM | 229 µM | – | – | – | – | binding to spike RBD [5]: did not demonstrate reproducible binding; EC50 (SARS-CoV-2 [7]): 2.83 µM; infected cells (SARS-CoV-2 pseudovirus): significant decrease
2 | ACE2 | – | – | – | – | – | – | – | – | – | – | – | – | – | – | – | – | – | Kd (spike RBD): ~0.015 µM
3 | CCC(CC)COC(=O)[C@H](C)N[P@](=O)(OC[C@H]1O[C@@](C#N)(c2ccc3c(N)ncnn23)[C@H](O)[C@@H]1O)Oc1ccccc1 [remdesivir] | – | – | – | – | – | – | – | – | – | – | – | – | – | 0.016 µM | – | – | – | inhibition at 0.6 µM (SARS-CoV-2 [10]; Severe acute respiratory syndrome coronavirus 2, Calu-3, read-out: inhibition PFU/mL): ~100%; inhibition of SARS-CoV-2, cell-associated viral RNA levels (SARS-CoV-2 [11]): ~50%
4 | CCN(CC)CCOc1ccc2c(c1)C(=O)c1cc(OCCN(CC)CC)ccc1-2 [tilorone] | – | – | 6.62 µM | 29 µM | – | 0.18 µM | ~20 µM | – | no inhibition | – | 0.73 µM | 49.6 µM | 111 µM | 10.8 µM | 20–40 times | no measurable activity | < 50% | IC50 (SARS-CoV-2 [10]; Severe acute respiratory syndrome coronavirus 2, Calu-3, 48 h): ~9 µM; antiviral activity (SARS-CoV-2 [12]): did not show antiviral activity; inhibition of HCoV-229E (HCoV 229E): did not show significant inhibition; IC50 (lysosomal pH): ~4 µM; IC50 (SARS-CoV-2 [13]): 4 µM
5 | COc1ccc2nc3cc(Cl)ccc3c(Nc3cc(CN4CCCC4)c(O)c(CN4CCCC4)c3)c2n1 [pyronaridine, 4-[(7-chloro-2-methoxybenzo[b][1,5]naphthyridin-10-yl)amino]-2,6-bis(1-pyrrolidinylmethyl)phenol phosphate (1:4)] | > 3.85 µM | no activity | > 3.52 µM | 5.49 µM | no activity | 0.198 µM | 2.75 µM | 2.83 logTCID50/mL | no activity; also recorded: no inhibition | 3.85 µM | 7.34 µM | 3.52 µM | 51.6 µM | – | 20–40 times | no measurable activity | < 50% | CC50 (Vero cells): 37.1 µM; CC50 (Calu-3 cells): 43.1 µM
